{"source": "patent US20170122958A1", "about": "“Enzymes Functional Probes” (University of Dundee, priority 2013, published 2017)", "format_in_all_cases": "binding", "key": {"Brd2(1) Leu110-Ile": {"target": "Brd2(1) Leu110-Ile (Homo sapiens, UniProt P25440, L110I)", "sequence (P25440 74-180 L110I limits assumed)": "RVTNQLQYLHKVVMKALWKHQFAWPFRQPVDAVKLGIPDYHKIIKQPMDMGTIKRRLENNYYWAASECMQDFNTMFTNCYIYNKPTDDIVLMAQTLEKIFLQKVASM", "test": "DSF thermal shift", "set-up": "Plasmids of the eight single BET bromodomain constructs Brd2(1), Brd2(2), Brd3(1), Brd3(2); His6 (N); made in house; host or cells: E. coli BL21(DE3)", "conditions": "mutant"}, "Brd2(2) Leu383-Ile [1]": {"target": "T1, Brd2(2) Leu383-Ile (Homo sapiens, UniProt P25440, L383I)", "T1 sequence (P25440 344-453 L383I limits assumed)": "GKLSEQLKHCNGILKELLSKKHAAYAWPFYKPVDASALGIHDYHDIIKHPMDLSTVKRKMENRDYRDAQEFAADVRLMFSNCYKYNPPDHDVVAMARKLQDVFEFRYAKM", "test": "DSF thermal shift", "set-up": "Plasmids of the eight single BET bromodomain constructs Brd2(1), Brd2(2), Brd3(1), Brd3(2); His6 (N); made in house; host or cells: E. coli BL21(DE3)", "conditions": "mutant"}, "Brd2(2) Leu383-Ile [2]": {"target": "T1, Brd2(2) Leu383-Ile", "test": "ITC reverse titration of protein into compound", "set-up": "Plasmids of the eight single BET bromodomain constructs Brd2(1), Brd2(2), Brd3(1), Brd3(2), Brd4(1), Brd4(2), Brdt(1) and Brdt(2); His6 (N); made in house; host or cells: E. coli BL21(DE3)", "description": "(§1) ITC experiments were carried out on a ITC200 instrument from MicroCal™ Experiments were conducted at 3 different temperatures 15° C., 25° C. and 30° C., while stirring at 1000 rpm. Buffers of proteins, peptide and compounds were matched to 20 mM HEPES pH 7.5 at 25° C. and 100 mM NaCl. Frozen protein was buffer exchanged as described for the DSF experiments. Each titration comprised 1 initial injection of 0.4 μl lasting 0.8 s, followed by 19 injections of 2 μl lasting 4 s each at 2 min intervals. The initial injection was discarded during data analysis. Standard and reverse titrations were conducted depending on the binding partners.\nReverse titrations were conducted to test the binding of the known ligands and the novel chemical probes to the wild types and the mutants. Experiments were carried out either at 25° C. or 30° C. For strong binders, a concentration of 150-200 μM of the protein was injected into a solution of 15-20 μM compound. […] In cases where the compound was solubilized in dimethyl sulfoxide, DMSO concentration was adjusted to 1% both in the syringe and in the cell.\n(§2) All the data was fitted to a single binding site model using the Microcal LLC ITC200 Origin software provided by the manufacturer to yield enthalpies of binding (ΔH) and binding constants (Kas). Further thermodynamic parameters were calculated from these values (changes in entropy ΔS, changes in free energy AG and dissociation constants (Kds))."}, "[3]": {"target": "T2, Brd2 tandem with no mutation (WT-WT) (Homo sapiens, UniProt P25440)", "T2 construct": "containing the first and the second bromodomain, as well as the natural linker between them; His6; SUMO (cleaved yes); made in house; host or cells: E. coli BL21(DE3)", "T2 sequence (P25440 71-455 limits assumed, change not shown)": "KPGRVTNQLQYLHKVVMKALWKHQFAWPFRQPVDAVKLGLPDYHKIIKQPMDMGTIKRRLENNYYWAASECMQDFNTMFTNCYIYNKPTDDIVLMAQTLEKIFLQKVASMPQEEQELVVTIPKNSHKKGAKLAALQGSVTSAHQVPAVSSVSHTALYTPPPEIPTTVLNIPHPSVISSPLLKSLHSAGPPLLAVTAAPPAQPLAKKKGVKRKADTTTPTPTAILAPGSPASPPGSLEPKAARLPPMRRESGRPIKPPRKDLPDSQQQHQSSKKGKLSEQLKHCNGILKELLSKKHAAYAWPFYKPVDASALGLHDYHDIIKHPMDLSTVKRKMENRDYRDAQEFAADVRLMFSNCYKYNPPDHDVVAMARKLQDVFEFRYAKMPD", "test": "ITC of compound into Brd2 tandem construct", "description": "(§3) Tandem constructs of Brd2 with and without leucine to alanine mutations were expressed and purified for this last part of the project. […] Nevertheless, ITC experiments were performed with four of these constructs, a tandem with no mutation (WT-WT), a tandem with the mutation in the first bromodomain (LA-WT), a tandem with the mutation on the second bromodomain (WT-LA) and a tandem with mutations on both bromodomains (LA-LA). Normal titrations (compound into syringe, protein into sample cell) with compound 11 were performed for this assay. For the WT-WT construct, 300 μM of the compound was injected into a solution of the tandem at 10 μM. For the LA-WT and WT-LA constructs, the compound was injected at 150 μM into 15 μM of the protein and for the LA-LA construct, 150 μM compound was injected into a solution of 10 μM of this tandem construct. The ITC assays were run at 30° C. at 1% DMSO.\nas §1, §2"}, "[4]": {"target": "T3, Brd2 tandem with mutations on both bromodomains (LA-LA) (Homo sapiens, UniProt P25440, L110A/L383A)", "T3 construct": "containing the first and the second bromodomain, as well as the natural linker between them; His6; SUMO (cleaved yes); made in house; host or cells: E. coli BL21(DE3)", "T3 sequence (P25440 71-455 L110A/L383A limits assumed)": "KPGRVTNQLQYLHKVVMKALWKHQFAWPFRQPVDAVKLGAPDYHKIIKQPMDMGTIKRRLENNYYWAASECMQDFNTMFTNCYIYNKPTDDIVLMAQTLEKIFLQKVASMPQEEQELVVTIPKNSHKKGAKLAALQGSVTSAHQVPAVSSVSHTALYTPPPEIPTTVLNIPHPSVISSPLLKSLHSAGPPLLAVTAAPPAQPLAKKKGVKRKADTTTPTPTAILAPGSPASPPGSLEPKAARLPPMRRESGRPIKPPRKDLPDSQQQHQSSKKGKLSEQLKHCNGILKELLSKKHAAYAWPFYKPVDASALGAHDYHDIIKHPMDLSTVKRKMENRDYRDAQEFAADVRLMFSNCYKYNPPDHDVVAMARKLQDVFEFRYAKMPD", "test": "ITC of compound into Brd2 tandem construct", "description": "as §3, §1, §2"}, "[5]": {"target": "T4, Brd2 tandem with the mutation in the first bromodomain (LA-WT) (Homo sapiens, UniProt P25440, L110A)", "T4 construct": "containing the first and the second bromodomain, as well as the natural linker between them; His6; SUMO (cleaved yes); made in house; host or cells: E. coli BL21(DE3)", "T4 sequence (P25440 71-455 L110A limits assumed)": "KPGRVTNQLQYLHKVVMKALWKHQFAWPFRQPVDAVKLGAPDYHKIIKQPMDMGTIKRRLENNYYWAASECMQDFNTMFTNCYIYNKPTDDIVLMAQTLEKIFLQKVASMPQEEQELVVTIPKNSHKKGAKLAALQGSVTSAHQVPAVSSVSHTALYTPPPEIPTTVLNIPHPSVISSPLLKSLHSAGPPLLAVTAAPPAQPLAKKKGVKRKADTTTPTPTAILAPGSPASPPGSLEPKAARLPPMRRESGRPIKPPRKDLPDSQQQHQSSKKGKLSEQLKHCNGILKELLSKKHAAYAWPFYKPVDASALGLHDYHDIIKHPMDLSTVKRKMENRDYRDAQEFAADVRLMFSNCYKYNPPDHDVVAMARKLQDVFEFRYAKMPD", "test": "ITC of compound into Brd2 tandem construct", "description": "as §3, §1, §2"}}}
{"molecule": "COC(=O)[C@H](C)[C@@H]1N=C(c2ccc(Cl)cc2)c2cc(OC)ccc2-n2c(C)nnc21", "note": "(racemic) [Compound 7, (+−)-methyl (R)-2-((S)-6-(4-chlorophenyl)-8-methoxy-1-methyl-4H-benzo[f][1,2,4]triazolo[4,3-a][1,4]diazepin-4-yl)propanoate]", "values": [{"measurement": "Thermal stabilisation brd2(1)L110I", "setting": "Brd2(1) Leu110-Ile", "result": "5.7 ± 0.7", "unit": "°C"}, {"measurement": "ΔTm Brd2(1)*(Leu110-Ile)", "setting": "Brd2(1) Leu110-Ile", "result": "5.7 ± 0.7", "unit": "K"}, {"measurement": "Thermal stabilisation brd2(1)L110I", "setting": "Brd2(1) Leu110-Ile; listed as compound 7", "result": 5.7, "unit": "°C"}, {"measurement": "Thermal stabilisation brd2(2)V383I (Table 1); Brd2(2) Leu383-Ile (text)", "setting": "Brd2(2) Leu383-Ile [1]", "result": "9.6 ± 0.1", "unit": "°C"}, {"measurement": "ΔTm Brd2(2)*(Leu383-Ile)", "setting": "Brd2(2) Leu383-Ile [1]", "result": "9.6 ± 0.1", "unit": "K"}, {"measurement": "Thermal stabilisation brd2(2)V383I (Table 1); Brd2(2) Leu383-Ile (text)", "setting": "Brd2(2) Leu383-Ile [1]; listed as compound 7", "result": 9.6, "unit": "°C"}, {"measurement": "Kd", "setting": "Brd2(2) Leu383-Ile [2]", "result": 27, "unit": "nM"}]}
{"molecule": "CC[C@@H](C(=O)OC)[C@@H]1N=C(c2ccc(Cl)cc2)c2cc(OC)ccc2-n2c(C)nnc21", "note": "(racemic) [Compound 11, (+−)-methyl (R)-2-((S)-6-(4-chlorophenyl)-8-methoxy-1-methyl-4H-benzo[f][1,2,4]triazolo[4,3-a][1,4]diazepin-4-yl)butanoate]", "values": [{"measurement": "Kd", "setting": "[3]", "result": "~15800", "unit": "nM"}, {"measurement": "Kd", "setting": "[4]", "result": "~56", "unit": "nM"}, {"measurement": "Kd", "setting": "[5]", "result": "~160", "unit": "nM"}]}
